This note sets out measurements from patent publication US10945972B2, “Particulate materials” (Nektar Therapeutics, priority 2002, dated 2021).

SMILES strings stand for the structures.

Common to all, as to format: physicochemical
Data set [1] is described as follows: Particle size by AeroSizer time-of-flight (Example 1). The note with it: aerodynamic-equivalent volume mean diameter. As for the experimental part: (§1) PSD measurements were performed using firstly, AEROSIZER® time-of-flight instrument equipped with AERO-[…]® (TSI Inc., Minneapolis. USA) and secondly, laser diffraction sensor Helos with dry-powder air-dispersion system Rodos (Sympatec GmbH. Germany). The volume mean particle diameter, VMD, was obtained for both instruments using software options. In the general case of non-spherical particles, these instruments cannot provide the exact value of VMD, however, the time-of-flight technique gives an aerodynamic-equivalent particle diameter, whereas the laser diffraction method provides the geometric projection-equivalent diameter. These diameters afford the complementary information on PSD and therefore can be used for comparative size analysis.

A short description of data set [2]: Particle size by Helos/Rodos laser diffraction (Example 1). The note with it: geometric projection-equivalent volume mean diameter. As for the experimental part:
as §1

A short description of data set [3]: Inverse gas chromatography surface energy (Example 1). The note with it: 303K. An excerpt:
For TBS and FHBr powders, IGC was done using a Hewlett Packard Series 6890 instrument which was specifically modified for IGC measurements by Surface Measurement Systems Ltd (Manchester, UK). The IGC method is described in detail by Tong et al. 2001. (Tong H. H. Y., B. Y. Shekunov, P. York, A. H. L. Chow, 2001. Pharm. Res. 18, 852.) Triplicate measurements in separate packed columns were made. […] The γS^D and ΔGA values were obtained at 303K.

Data set [4] in a line: Laser diffraction HELOS/RODOS of TBS (Example 8). As to conditions: listed as micronized terbutaline sulphate. Here is the method:
A small amount of TBS powder was analysed using a laser diffraction RODOS/VIBRI dispersing system (HELOS/RODOS, Sympatec GmbH, Clausthal-Zellerfeld, Germany). The instrument consisted of a laser sensor HELOS and a RODOS dry-powder air-dispersion system (Sympatec GmbH, Clausthal-Zellerfeld, Germany). Different measurement ranges of the laser sensor were provided by interchangeable objectives R1 (0.1-35 μm) and R2 (0.25-87.5 μm). The rate of powder dispersion was controlled by adjusting the pressure of the compressed air flow. A pressure of 2 bar was sufficient to achieve deagglomeration of primary particles without attrition.

The nature of data set [5]: Isothermal microcalorimetry, TAM with RH ramp (Example 8). As to conditions: 25° C., RH ramp 0 to 90% at 3% RH/hr; listed as micronized TBS. As for the experimental part: A Thermal Activity Monitor (TAM, model 2277; Thermometric A B, Jrflla, Sweden) was used to measure the calorimetric heat flow (μW) vs. % RH profile of each sample. A RH-perfusion cell (Model 2255-120) accessory for the TAM was used to control RH within the sample vessel. The carrier gas, dry N2, was flowed at a constant rate (1.48 cm^3/min). All experiments were performed at 25° C. About 100 to 105 mg accurately weighed of each powder were placed in a stainless steel ampoule, attached to the RH perfusion cell, and then dried under 0% RH until a stable heat flow signal was reached (e.g., a signal within the range of −1 to +1 μW). The RH was then increased in a linear ramp from 0 to 90% over the following 30 hours (i.e., 3% RH/hr). The heat flow arising from interactions of water vapor with the solid sample was measured as a function of time. Since RH changed with time in a linear fashion, the heat flow was also known as a function of RH.
The TAM measures the total heat flow in power, P, produced from either a physical or chemical reaction. In this study, the calorimetric power is proportional to the rate of moisture sorption or desorption, crystallization, and/or other processes. Exothermic events are measured as a deflection in the positive y-axis direction. Although crystallization is an exothermic process, it can be observed as a net endothermic process. During crystallization, there is an exotherm due to crystallization and a simultaneous endotherm due to desorption of previously sorbed moisture. The TAM profile gives the resultant of these processes.

A short description of data set [6]: AEROFLOW powder avalanching (Example 8). The note with it: listed as Micronized. Here is the method:
An AEROFLOW™ powder avalanching apparatus (Amherst Process Instruments, API, Amherst, USA) was employed to analyze the dynamic avalanching behaviour of micronized and SC processed TBS samples. The AEROFLOW™ apparatus consists of a transparent rotating drum with a port at the front. A white light source is positioned in front of the drum and a masked array of photocells is behind the drum. To measure avalanching, 50 ml of the drug powder was added to the drum, which is about 15% of its total volume to ensure good powder mixing during the operation. As the drum rotates, the powder bed is carried upwards until an unstable state is reached and an avalanche occurs.
The time between successive avalanches was recorded by the projection of the light beam through the drum onto the photocell array. The photocells generated a voltage dependent on the amount of light falling on the cells and the area of unmasked photocells shielded from the light source by the powder. The voltage output (transmitted light intensity) was recorded by a computer, which translates the output as powder movement using a technique disclosed in B. H. Kaye. Characterizing the flowability of a powder using the concepts of fractal geometry and chaos theory, Part. Part. Charact. 14: 53-66 (1997). Each TBS sample was tested in duplicate and mean avalanche time and irregularity (scatter) of avalanches were recorded.

For the compound `CC(C)(C)NCC(O)c1cc(O)cc(O)c1` (stereo not drawn) [TSB Micronised, terbutaline sulphate, reference compound], in data set [1], the “VMD (μm) (Time of flight)” value came out at 2.7 μm. The “VMD (μm) (laser diffraction)” value in data set [2] was determined as 3.04 μm. Also, in data set [3], the “γs^D (mJ/m^2)” value was determined as 58.61 mJ/m^2. Also, the “ΔGA (kJ/mol) Acetone” value in data set [3] (probe acetone) is recorded as 12.57 kJ/mol. Further, the “ΔGA (kJ/mol) Chloroform” value in data set [3] (probe chloroform) was determined as 1.79 kJ/mol. Further, the “ΔGA (kJ/mol) Dioxane” value in data set [3] (probe dioxane) is reported as 15.96 kJ/mol. In data set [3] (probe ethyl acetate), the “ΔGA (kJ/mol) Ethyl acetate” value was determined as 16.01 kJ/mol. In addition, in data set [3] (probe toluene), the “ΔGA (kJ/mol) Toluene” value amounted to 3.42 kJ/mol. Moreover, the “Sympatec D4, 3 (μm)” value in data set [4] (2 bar) stood at 3.0 μm. In data set [4], the “particle size, 90% less than” value was “less than 5 μm”. In data set [5], the “RH of thermal event in TAM profile” value is listed as “about 79 % RH”. Moreover, in data set [6] (100 sec/rev), the “Irregularity of flow” value came to 1.28 s and the “Mean time to avalanche” value turned out to be 3.62 s. In data set [6] (145 sec/rev), the “Irregularity of flow” value was determined as 2.39 s and the “Mean time to avalanche” value is listed as 5.72 s.
